Source: US12150937B2, “NLRP3 modulators” (INNATE TUMOR IMMUNITY, INC., priority 2019, dated 2024)

target: T1, NLRP3 (Homo sapiens, UniProt Q96P20); test: Measurement of IL-1β production in PMA-differentiated THP-1 cells (NLRP3 hIL1β); type: cell-based
T1 construct: Measurement of IL-1β Production in PMA-Differentiated THP-1 Cells; host or cells: THP-1 cells, PMA-differentiated
Protocol: Measurement of IL-1β Production in PMA-Differentiated THP-1 Cells
THP-1 cells were purchased from the American Type Culture Collection and sub-cultured according to instructions from the supplier. Prior to experiments, cells were cultured in RPMI 1640 containing 10% heat inactivated FBS, penicillin (100 units/ml) and streptomycin (100 μg/ml), and maintained in log phase prior to experimental setup. Prior to the experiment THP-1 were treated with PMA (Phorbol 12-myristate 13-acetate) (10 μg/ml) for 24 hours. The day of the experiment the media was removed and attaching cells were treated with trypsin for 2 minutes, cells were then collected, washed with PBS (phosphate buffer saline), spin down, resuspended in 2% heat inactivated FBS with RPMI at a concentration of 1×10^6 cells/ml, and 100 μl was plated in a 96 well plate. Compounds were dissolved in dimethyl sulfoxide (DMSO) and added to the culture medium to achieve desired concentration (e.g. 100, 30, 10, 3, 1, 0.3 or 0.1 μM). Cells were incubated with compounds for 4 hours. Cell free supernatant was collected and the production of IL-1β was evaluated by ELISA. A vehicle only control was run concurrently with each experiment. Final DMSO concentration was 1%.
Measurement of IL-1β Production in PMA-Differentiated THP-1 Cells (Alternative Procedure)
THP-1 cells were purchased from the American Type Culture Collection and sub-cultured according to instructions from the supplier. Prior to experiments, cells were cultured in RPMI 1640 containing 10% heat inactivated FBS, penicillin (100 units/ml), streptomycin (100 μg/ml), HEPES (10 mM) and sodium pyruvate (1 mM) and maintained in log phase prior to experimental setup. Prior to the experiment, THP-1 cells were treated with PMA (Phorbol 12-myristate 13-acetate) (20 μg/ml) overnight. The day of the experiment, the media was removed and attached cells were treated with trypsin for 2 minutes, cells were then collected, washed with PBS (phosphate buffer saline), pelleted by centrifugation and resuspended in 2% heat inactivated FBS with RPMI at a concentration of 50,000 cells/well in a 384 well plate. Cell free supernatant was collected and the production of IL-1β was evaluated by ELISA. Compounds were dissolved in dimethyl sulfoxide (DMSO) and added to the culture medium to achieve desired concentration (e.g. 100, 30, 10, 3, 1, 0.3 or 0.1 μM). Cells were incubated with compounds for 2 hours. A vehicle only control was run concurrently with each experiment. Final DMSO concentration was 1%.
Measurement of IL-1β Production—hTRF Protocol (Second Alternative Procedure)
Serial dilutions of compounds in DMSO were added to low volume 384 well plates at 100 nl/well using an ECHO 550 acoustic dispenser (Labcyte) to achieve final starting concentration of 10 μM in assay.
THP-1 cells in RPMI (Gibco, 11875) media with 10% FBS at a density of 1×10^6 cell/ml in a T175 flask were treated with a final concentration of phorbol 12-myristate 13-acetate (PMA) (Sigma, P1585) of 50 ng/ml overnight at 37° C. at 5% CO2 for differentiation. Cells were harvested the next day after rinsing well wth dPBS using 0.5% trypsin. A cell solution was prepared of 1×10^6 cells/ml for 50,000 cells in 50 μl/well in RPMI media with 2% FBS. Cells were plated using a multichannel pipette onto the compound dilutions in Greiner, 384 well, black clear bottom tissue culture treated plates (781090). The plates were incubated in 37° C. incubator at 5% CO2 for 2 hours.
After the 2 hour incubation, the cell plates were spun in the centrifuge for 5 minutes at 1200 rpm. Using the Felix (CyBio), 8 μl of the supernatant was transferred to 384 well, low volume, white proxy plates. (Perkin Elmer, 6008230). A human IL1beta hTRF kit was used to analyze the supernatant (CISBIO, 62HIL1BPEG). The kit instructions were followed for preparing the IL1Beta standard curve and then the antibodies from the kit were diluted 1:40 rather than 1:20 as kit instructed. […]

T1 sequence (Q96P20 whole entry): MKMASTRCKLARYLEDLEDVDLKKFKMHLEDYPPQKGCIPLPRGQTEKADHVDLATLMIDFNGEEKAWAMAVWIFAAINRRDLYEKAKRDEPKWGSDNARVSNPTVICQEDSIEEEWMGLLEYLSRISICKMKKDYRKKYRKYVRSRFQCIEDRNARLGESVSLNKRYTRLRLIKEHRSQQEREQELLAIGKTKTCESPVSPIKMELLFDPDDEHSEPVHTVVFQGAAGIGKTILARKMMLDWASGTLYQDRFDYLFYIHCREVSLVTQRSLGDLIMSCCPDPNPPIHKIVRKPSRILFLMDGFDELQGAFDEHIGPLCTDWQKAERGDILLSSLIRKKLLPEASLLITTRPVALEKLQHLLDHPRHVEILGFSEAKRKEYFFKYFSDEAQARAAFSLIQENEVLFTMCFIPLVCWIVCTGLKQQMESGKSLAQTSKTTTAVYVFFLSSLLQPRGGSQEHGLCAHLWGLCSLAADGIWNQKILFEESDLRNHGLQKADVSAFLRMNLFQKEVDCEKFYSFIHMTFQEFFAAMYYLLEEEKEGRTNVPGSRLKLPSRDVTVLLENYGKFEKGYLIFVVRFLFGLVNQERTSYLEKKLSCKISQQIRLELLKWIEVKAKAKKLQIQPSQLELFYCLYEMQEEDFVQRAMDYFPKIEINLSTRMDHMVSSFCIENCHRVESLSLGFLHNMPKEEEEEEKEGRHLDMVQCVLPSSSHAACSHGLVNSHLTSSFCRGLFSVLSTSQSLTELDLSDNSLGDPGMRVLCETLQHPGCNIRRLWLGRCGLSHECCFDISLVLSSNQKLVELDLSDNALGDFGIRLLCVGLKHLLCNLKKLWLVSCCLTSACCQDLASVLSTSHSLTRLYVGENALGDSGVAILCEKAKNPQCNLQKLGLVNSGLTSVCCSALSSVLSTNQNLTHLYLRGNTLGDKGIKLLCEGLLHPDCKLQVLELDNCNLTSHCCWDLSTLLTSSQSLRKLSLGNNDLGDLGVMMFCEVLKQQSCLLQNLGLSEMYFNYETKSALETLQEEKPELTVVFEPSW

SMILES	EC50
Nc1cc(NCCCO)c2ccc(-c3cc[nH]n3)nc2n1 [Example 1, 3-((2-amino-7-(1H-pyrazol-3-yl)-1,8-naphthyridin-4-yl)amino)propan-1-ol]	1000 nM
Nc1cc(N[C@H]2CC[C@H](O)C2)c2cnc(-c3ccn[nH]3)cc2n1 [Example 2, (1S,3S)-3-((2-amino-7-(1H-pyrazol-5-yl)-1,6-naphthyridin-4-yl)amino)cyclopentan-1-ol]	17000 nM
Nc1cc(NCCO)c2ncc(-c3ccn[nH]3)cc2n1 [Example 3, 2-((2-amino-7-(1H-pyrazol-3-yl)-1,5-naphthyridin-4-yl)amino)ethan-1-ol]	310 nM
Nc1cc(N[C@H]2CC[C@H](O)C2)c2ncc(-c3ccn[nH]3)cc2n1 [Example 4, (1S,3S)-3-((2-amino-7-(1H-pyrazol-5-yl)-1,5-naphthyridin-4-yl)amino)cyclopentan-1-ol]	3500 nM
Nc1cc(-c2cc[nH]n2)c2ncc(-c3ccn[nH]3)cc2n1 [Example 5, 4-(1H-pyrazol-3-yl)-7-(1H-pyrazol-5-yl)-1,5-naphthyridin-2-amine]	860 nM
Nc1nc(N[C@@H]2CCOC2)c2ncc(-c3cc[nH]n3)cc2n1 [Example 6, (R)-7-(1H-pyrazol-3-yl)-N4-(tetrahydrofuran-3-yl)pyrido[3,2-d]pyrimidine-2,4-diamine]	3600 nM
Nc1nc(N[C@H]2CC[C@H](O)C2)c2ccc(-c3ccn[nH]3)nc2n1 [Example 7, (1S,3 S)-3-((2-amino-7-(1H-pyrazol-5-yl)pyrido[2,3-d]pyrimidin-4-yl)amino)cyclopentan-1-ol]	5700 nM
Nc1cc(N[C@H]2CC[C@H](O)C2)c2ccc(-c3cc[nH]n3)nc2n1 [Example 8]	1600 nM
Nc1cc(NCc2cccnn2)c2ccc(-c3cc[nH]n3)nc2n1 [Example 9]	2000 nM
Nc1cc(N[C@H]2CCOC2)c2ccc(-c3cc[nH]n3)nc2n1 [Example 10]	930 nM
Nc1cc(NCCCO)c2cnc(-c3cc[nH]n3)cc2n1 [Example 11]	1700 nM
Nc1cc(N[C@H]2CCOC2)c2cnc(-c3cc[nH]n3)cc2n1 [Example 12]	1700 nM
Nc1cc(N[C@@H]2CCOC2)c2ncc(-c3ccn[nH]3)cc2n1 [Example 14]	2600 nM

The next lines start with the values.

EC50	SMILES
280 nM	Nc1cc(NCc2cc[nH]n2)c2ncc(-c3ccn[nH]3)cc2n1 [Example 15]
350 nM	Nc1cc(NCCCO)c2ncc(-c3ccn[nH]3)cc2n1 [Example 16]
830 nM	Nc1nc(NCCCO)c2ncc(-c3cc[nH]n3)cc2n1 [Example 17]
2000 nM	Nc1nc(NCc2cncnc2)c2ncc(-c3cc[nH]n3)cc2n1 [Example 18]
690 nM	Nc1nc(NCCc2ccccn2)c2ncc(-c3cc[nH]n3)cc2n1 [Example 19]
1900 nM	Nc1nc(NCCO)c2ncc(-c3cc[nH]n3)cc2n1 [Example 20]
700 nM	Nc1nc(N2CCCOCC2)c2ncc(-c3cc[nH]n3)cc2n1 [Example 21]
310 nM	C[C@H](O)CNc1cc(N)nc2cc(-c3ccn[nH]3)cnc12 [Example 24]
80 nM	C[C@@H](O)CNc1cc(N)nc2cc(-c3ccn[nH]3)cnc12 [Example 25]
590 nM	Nc1cc(N[C@@H]2CC[C@@H](O)C2)c2ncc(-c3ccn[nH]3)cc2n1 [Example 26]
140 nM	Nc1cc(N[C@H]2C[C@H](O)C2)c2ncc(-c3ccn[nH]3)cc2n1 [Example 28]
280 nM	Nc1cc(NCc2cccnn2)c2ncc(-c3ccn[nH]3)cc2n1 [Example 29]
